This is an account of results in patent US20240300932A1, “N-PHENYLIMINE DERIVATIVE AND PREPARATION METHOD AND USE THEREOF” (Guizhou University, priority 2023, published 2024).

Structures are written as SMILES.

Holding throughout (assay): Post-emergence herbicidal activity test (stem and leaf spray, pot culture)
Holding throughout (assay type): in vivo
What all share (conditions): 3 weeks after spraying

In experiment [1] the test system is Abutilon theophrasti. The gist of the method:
(§1)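 Graded 0–5 on fresh-weight growth control rate 3 weeks after a single spray-tower application at 10, 5 or 2.5 g/mu. Compounds in acetone with Tween 80 and methyl oleate synergist (1.5 liters/ha), applied to greenhouse weeds at 2- to 3-leaf stage.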

The test system of experiment [2] is Amaranthus retroflexus. The method in brief:
as §1

Experiment [3] concerns Echinochloa crusgalli. The gist of the method:
as §1

In experiment [4] the test system is Portulaca oleracea. The method in brief:
as §1

Experiment [5] concerns Setaria viridis. The method in brief: as §1
For experiment [6], the system named is Trifoliumre pensL. The method in brief: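 Pot-grown weeds in loam (pH 7), greenhouse at 20–30 °C, sprayed once post-emergence at the 2–3-leaf stage. Compound in acetone with Tween 80 plus methyl oleate oil (1.5 L/ha), applied at 10, 5 and 2.5 g/mu by spray tower. Effect scored 3 weeks after spraying, averaged over three repeats.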

With `O=C1C2=C(CCCC2)C(=O)N1c1cc(OCc2nnc(-c3ccc(Cl)cc3)o2)c(Cl)cc1F` [Compound B15], the “Post-emergence herbicidal activity, A. theophrasti (grade)” value in experiment [1] (dosage 2.5 g/mu), in experiment [1] (dosage 5 g/mu) and in experiment [1] (dosage 10 g/mu) was 5 (Grade 5: the growth control rate is greater than or equal to 85%) each time. For the same compound, the “Post-emergence herbicidal activity, A. retroflexus (grade)” value in experiment [2] (dosage 2.5 g/mu), in experiment [2] (dosage 5 g/mu) and in experiment [2] (dosage 10 g/mu) was 5 (Grade 5: the growth control rate is greater than or equal to 85%) each time. The “Post-emergence herbicidal activity, E. crusgalli (grade)” value in experiment [3] (dosage 2.5 g/mu) is 1 (Grade 1: the growth control rate is greater than or equal to 5% and less than 20%); in experiment [3] (dosage 5 g/mu), 2 (Grade 2: the growth control rate is greater than or equal to 20% and less than 40%); in experiment [3] (dosage 10 g/mu), 3 (Grade 3: the growth control rate is greater than or equal to 40% and less than 60%). The “Post-emergence herbicidal activity, P. oleracea (grade)” value in experiment [4] (dosage 2.5 g/mu), in experiment [4] (dosage 5 g/mu) and in experiment [4] (dosage 10 g/mu) was 5 (Grade 5: the growth control rate is greater than or equal to 85%) each time. Besides, the “Post-emergence herbicidal activity, S. viridis (grade)” value in experiment [5] (dosage 2.5 g/mu) was 2 (Grade 2: the growth control rate is greater than or equal to 20% and less than 40%); in experiment [5] (dosage 5 g/mu) it was 3 (Grade 3: the growth control rate is greater than or equal to 40% and less than 60%); in experiment [5] (dosage 10 g/mu), 4 (Grade 4: the growth control rate is greater than or equal to 60% and less than 85%). Besides, the “Post-emergence herbicidal activity, Trifoliumre pensL. (grade)” value in experiment [6] (dosage 2.5 g/mu), in experiment [6] (dosage 5 g/mu) and in experiment [6] (dosage 10 g/mu) was 5 (Grade 5: the growth control rate is greater than or equal to 85%) in each case.

Turning to `O=C1C2=C(CCCC2)C(=O)N1c1cc(OCc2nc(-c3c(F)cccc3F)no2)c(Cl)cc1F` [Compound A24], the “Post-emergence herbicidal activity, A. theophrasti (grade)” value in experiment [1] (dosage 2.5 g/mu), in experiment [1] (dosage 5 g/mu) and in experiment [1] (dosage 10 g/mu) was 5 (Grade 5: the growth control rate is greater than or equal to 85%) throughout. In addition, the “Post-emergence herbicidal activity, A. retroflexus (grade)” value in experiment [2] (dosage 2.5 g/mu), in experiment [2] (dosage 5 g/mu) and in experiment [2] (dosage 10 g/mu) was 5 (Grade 5: the growth control rate is greater than or equal to 85%) in each case. Moreover, the “Post-emergence herbicidal activity, E. crusgalli (grade)” value is 1 (Grade 1: the growth control rate is greater than or equal to 5% and less than 20%) in experiment [3] (dosage 2.5 g/mu); 2 (Grade 2: the growth control rate is greater than or equal to 20% and less than 40%) in experiment [3] (dosage 5 g/mu); 3 (Grade 3: the growth control rate is greater than or equal to 40% and less than 60%) in experiment [3] (dosage 10 g/mu). Moreover, the “Post-emergence herbicidal activity, P. oleracea (grade)” value was 4 (Grade 4: the growth control rate is greater than or equal to 60% and less than 85%) in experiment [4] (dosage 2.5 g/mu); 5 (Grade 5: the growth control rate is greater than or equal to 85%) in experiment [4] (dosage 5 g/mu); 5 (Grade 5: the growth control rate is greater than or equal to 85%) in experiment [4] (dosage 10 g/mu). The “Post-emergence herbicidal activity, S. viridis (grade)” value in experiment [5] (dosage 2.5 g/mu) was 2 (Grade 2: the growth control rate is greater than or equal to 20% and less than 40%); in experiment [5] (dosage 5 g/mu) it was 3 (Grade 3: the growth control rate is greater than or equal to 40% and less than 60%); in experiment [5] (dosage 10 g/mu), 4 (Grade 4: the growth control rate is greater than or equal to 60% and less than 85%). The “Post-emergence herbicidal activity, Trifoliumre pensL. (grade)” value in experiment [6] (dosage 2.5 g/mu) is 4 (Grade 4: the growth control rate is greater than or equal to 60% and less than 85%); in experiment [6] (dosage 5 g/mu), 5 (Grade 5: the growth control rate is greater than or equal to 85%); in experiment [6] (dosage 10 g/mu), 5 (Grade 5: the growth control rate is greater than or equal to 85%).

Turning to `O=C1C2=C(CCCC2)C(=O)N1c1cc(OCc2nnc(-c3cccc(Br)c3)o2)c(Cl)cc1F` [Compound B10], the “Post-emergence herbicidal activity, A. theophrasti (grade)” value in experiment [1] (dosage 2.5 g/mu) was 4 (Grade 4: the growth control rate is greater than or equal to 60% and less than 85%); in experiment [1] (dosage 5 g/mu), 5 (Grade 5: the growth control rate is greater than or equal to 85%); in experiment [1] (dosage 10 g/mu), 5 (Grade 5: the growth control rate is greater than or equal to 85%). For the same compound, the “Post-emergence herbicidal activity, A. retroflexus (grade)” value in experiment [2] (dosage 2.5 g/mu) is 4 (Grade 4: the growth control rate is greater than or equal to 60% and less than 85%); in experiment [2] (dosage 5 g/mu), 5 (Grade 5: the growth control rate is greater than or equal to 85%); in experiment [2] (dosage 10 g/mu), 5 (Grade 5: the growth control rate is greater than or equal to 85%). Besides, the “Post-emergence herbicidal activity, E. crusgalli (grade)” value was 1 (Grade 1: the growth control rate is greater than or equal to 5% and less than 20%) in experiment [3] (dosage 2.5 g/mu); 2 (Grade 2: the growth control rate is greater than or equal to 20% and less than 40%) in experiment [3] (dosage 5 g/mu); 3 (Grade 3: the growth control rate is greater than or equal to 40% and less than 60%) in experiment [3] (dosage 10 g/mu). Further, the “Post-emergence herbicidal activity, P. oleracea (grade)” value in experiment [4] (dosage 2.5 g/mu), in experiment [4] (dosage 5 g/mu) and in experiment [4] (dosage 10 g/mu) was 5 (Grade 5: the growth control rate is greater than or equal to 85%) throughout. In addition, the “Post-emergence herbicidal activity, S. viridis (grade)” value in experiment [5] (dosage 2.5 g/mu) was 2 (Grade 2: the growth control rate is greater than or equal to 20% and less than 40%); in experiment [5] (dosage 5 g/mu) it was 3 (Grade 3: the growth control rate is greater than or equal to 40% and less than 60%); in experiment [5] (dosage 10 g/mu), 4 (Grade 4: the growth control rate is greater than or equal to 60% and less than 85%). The “Post-emergence herbicidal activity, Trifoliumre pensL. (grade)” value in experiment [6] (dosage 2.5 g/mu), in experiment [6] (dosage 5 g/mu) and in experiment [6] (dosage 10 g/mu) was 5 (Grade 5: the growth control rate is greater than or equal to 85%) in each case.

As for `O=C1C2=C(CCCC2)C(=O)N1c1cc(OCc2nc(-c3cccc(C(F)(F)F)c3)no2)c(Cl)cc1F` [Compound A17], the “Post-emergence herbicidal activity, A. theophrasti (grade)” value in experiment [1] (dosage 2.5 g/mu), in experiment [1] (dosage 5 g/mu) and in experiment [1] (dosage 10 g/mu) was 5 (Grade 5: the growth control rate is greater than or equal to 85%) each time. The “Post-emergence herbicidal activity, A. retroflexus (grade)” value in experiment [2] (dosage 2.5 g/mu), in experiment [2] (dosage 5 g/mu) and in experiment [2] (dosage 10 g/mu) was 5 (Grade 5: the growth control rate is greater than or equal to 85%) each time. Besides, the “Post-emergence herbicidal activity, E. crusgalli (grade)” value in experiment [3] (dosage 2.5 g/mu) is 1 (Grade 1: the growth control rate is greater than or equal to 5% and less than 20%); in experiment [3] (dosage 5 g/mu), 2 (Grade 2: the growth control rate is greater than or equal to 20% and less than 40%); in experiment [3] (dosage 10 g/mu), 3 (Grade 3: the growth control rate is greater than or equal to 40% and less than 60%). Also, the “Post-emergence herbicidal activity, P. oleracea (grade)” value in experiment [4] (dosage 2.5 g/mu) is 4 (Grade 4: the growth control rate is greater than or equal to 60% and less than 85%); in experiment [4] (dosage 5 g/mu), 5 (Grade 5: the growth control rate is greater than or equal to 85%); in experiment [4] (dosage 10 g/mu), 5 (Grade 5: the growth control rate is greater than or equal to 85%). In addition, the “Post-emergence herbicidal activity, S. viridis (grade)” value in experiment [5] (dosage 2.5 g/mu) was 2 (Grade 2: the growth control rate is greater than or equal to 20% and less than 40%); in experiment [5] (dosage 5 g/mu), 3 (Grade 3: the growth control rate is greater than or equal to 40% and less than 60%); in experiment [5] (dosage 10 g/mu) it was 4 (Grade 4: the growth control rate is greater than or equal to 60% and less than 85%). Besides, the “Post-emergence herbicidal activity, Trifoliumre pensL. (grade)” value in experiment [6] (dosage 2.5 g/mu) is 4 (Grade 4: the growth control rate is greater than or equal to 60% and less than 85%); in experiment [6] (dosage 5 g/mu) it was 5 (Grade 5: the growth control rate is greater than or equal to 85%); in experiment [6] (dosage 10 g/mu), 5 (Grade 5: the growth control rate is greater than or equal to 85%).
